According to paper PMC5352362, “Molecular and functional evaluation of a novel HIF inhibitor, benzopyranyl 1,2,3-triazole compound” (Oncotarget, 2016):

Legend:
Format in all cases: cell-based, human
[1] = test system: HIF-1α target genes (VEGF, ALDOC, CA9, GLUT1, CXCR4); test: Semiquantitative RT-PCR of HIF-1α target genes in A549 cells; details: 1–100 nM, 16 h, hypoxia
Text: (§1) As HIF-1α regulates transcription of its target genes, which are involved in angiogenesis, glucose metabolism, and metastasis in tumor progression, we determined the effects of Compound 12 on HIF-1 target gene expression at the mRNA level by semiquantitative RT-PCR. […] Thus, we checked secreted VEGF protein levels in culture media via ELISA.
(§2) Figure 5 Compound 12 suppressed HIF-1α target gene expression, and confirmation of in vitro results via determination of effects on angiogenesis in vivo (A) A549 cells were treated with Compound 12 (at concentrations of 0 nM, 1 nM, 10 nM, and 100 nM) for 16 h. The mRNA levels of HIF-1α target genes were determined by semiquantitative RT-PCR. β-actin was used as an internal control. D. DMSO vehicle control. N, normoxia; H, hypoxia. […] Media supernatant was collected, and secreted VEGF was determined by ELISA after removal of cellular debris. […] Cells that migrated through the membrane (8 μm pore size) were stained with hematoxylin and eosin, pictured as shown in upper panel, and counted (graph). *P < 0.05, **P < 0.01 versus VEGF-treated control. […] (F) Compound 12 (0.1 μg and 1 μg dosages) and retinoic acid (RA, positive control) were applied to the ED 4.5 CAM for two days, neovessel formation from the large vessels was observed, and percentages of positive angiogenic eggs (from total eggs tested) were calculated. […]

secreted VEGF = test: VEGF ELISA of A549 culture media; details: A549 cells, 10 and 100 nM, 16 h
Text: as §1, §2

HUVECs = test: BrdU cell proliferation assay, VEGF-induced; details: VEGF 20 ng/mL
Procedure: Figure 5 Compound 12 suppressed HIF-1α target gene expression, and confirmation of in vitro results via determination of effects on angiogenesis in vivo (A) A549 cells were treated with Compound 12 (at concentrations of 0 nM, 1 nM, 10 nM, and 100 nM) for 16 h. The mRNA levels of HIF-1α target genes were determined by semiquantitative RT-PCR. β-actin was used as an internal control. D. DMSO vehicle control. N, normoxia; H, hypoxia. (B) A549 cells were treated with serum-reduced culture media containing Compound 12 (at concentrations of 0 nM, 10 nM, and 100 nM) for 16 h. Media supernatant was collected, and secreted VEGF was determined by ELISA after removal of cellular debris. N, normoxia; H, hypoxia. **P < 0.01 versus hypoxia (H) DMSO (D)-treated control. (C) HUVECs were treated with Compound 12, at the indicated concentrations, in the presence of VEGF (20 ng/mL) for 24 h in 1% serum-containing media. […] Cells that migrated through the membrane (8 μm pore size) were stained with hematoxylin and eosin, pictured as shown in upper panel, and counted (graph). *P < 0.05, **P < 0.01 versus VEGF-treated control. […] (F) Compound 12 (0.1 μg and 1 μg dosages) and retinoic acid (RA, positive control) were applied to the ED 4.5 CAM for two days, neovessel formation from the large vessels was observed, and percentages of positive angiogenic eggs (from total eggs tested) were calculated. […]

For `COc1ccc(-c2cn(CC3(C)C=Cc4cc([N+](=O)[O-])ccc4O3)nn2)cc1` (stereo not drawn) [Compound 12, 4-(4-methoxyphenyl)-1-((2-methyl-6-nitro-2H-chromen-2-yl)methyl)-1H-1,2,3-triazole], the “mRNA levels of VEGF, ALDOC, CA9, GLUT1 and CXCR4” value [1] was “suppressed the mRNA levels”, the “hypoxia-induced VEGF secretion” value (secreted VEGF) was “significantly suppressed hypoxia-induced VEGF secretion, in a dose-dependent manner” and the “VEGF-induced endothelial cell proliferation (BrdU)” value (HUVECs) was “significantly inhibited VEGF-induced proliferation”.
